Experimental data from patent US12629374B2, “Antimalarial agents” (Merck Sharp & Dohme LLC, priority 2020, dated 2026).
Where two headings read alike, the source gives them in different places.

System: ring stage parasites
Test: Parasite growth potency assay, 72 hours, LDH readout
Assay type: cell-based
In short: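 Parasite growth was quantified by LDH assay after a −80 °C freeze-thaw. Before that, compound was incubated for 72 h at 37 °C under humidified gas with ring-stage cultures adjusted to 0.7% parasitemia and 2% haematocrit in serum- and albumax-supplemented RPMI-Hepes.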

[1] = 72 h, parasite growth measured by LDH assay after 72 hours at 37° C., 0.7% rings, 2% haematocrit, read-out: EC50
[2] = parasite growth measured by LDH assay after 72 hours at 37° C., 0.7% rings, 2% haematocrit, read-out: EC50
[3] = parasite growth measured by LDH assay after 72 hours at 37° C., 0.7% rings, 2% haematocrit, trifluoroacetate, read-out: EC50

Compound	EC50 [1] [nM]	also measured
N=C1N[C@@](CC2CC2)(c2ccccc2)CC(=O)N1Cc1cc(F)cc(C(=O)N[C@H]2CCOc3ccccc32)c1 [Example 5A, [(4R)-1-[[3-[[(4S)-chroman-4-yl]carbamoyl]-5-fluoro-phenyl]methyl]-4-(cyclopropylmethyl)-6-oxo-4-phenyl-hexahydropyrimidin-2-ylidene]ammonium; 2,2,2-trifluoroacetate]	16.2	–
CCC1(CC)CC(=O)N([C@H](CCOC)c2cccc(C(=O)N[C@@H]3c4cc(F)ccc4OC(C)(C)[C@H]3O)c2)C(=N)N1 [Example 165B, [4,4-diethyl-1-[(1R)-1-[3-[[(3S,4R)-6-fluoro-3-hydroxy-2,2-dimethyl-chroman-4-yl]carbamoyl]phenyl]-3-methoxy-propyl]-6-oxo-hexahydropyrimidin-2-ylidene]ammonium; 2,2,2-trifluoroacetate]	0.4	–
CCC[C@H](c1cccc(C(=O)N[C@H]2c3ccccc3OCC2O)c1)N1C(=N)NC(CC)(CC)CC1=O (stereo partly drawn) [Example 127C, 3-[(1R)-1-(4,4-diethyl-2-imino-6-oxo-hexahydropyrimidin-1-yl)butyl]-N-(3-hydroxychroman-4-yl)benzamide]	–	EC50 [2]: 53.8 nM
CCC1(CC)CC(=O)N([C@H](c2cccc(OS(=O)(=O)F)c2)c2cccc(C(=O)N[C@H]3CCOc4ccccc43)c2)C(=N)N1 [Example 149A, [1-[[3-[[(4S)-chroman-4-yl]carbamoyl]phenyl]-(3-fluorosulfonyloxyphenyl)methyl]-4,4-diethyl-6-oxo-hexahydropyrimidin-2-ylidene]ammonium; 2,2,2-trifluoroacetate]	–	EC50 (72 h): 1.5 nM
CCC1(CC)CC(=O)N(C(CCOC)c2ccc(C(F)(F)F)c(C(=O)N[C@@H]3c4ccccc4OC[C@]3(C)O)c2)C(=N)N1 (stereo partly drawn) [Example 245, 5-[1-(4,4-diethyl-2-imino-6-oxo-hexahydropyrimidin-1-yl)-3-methoxy-propyl]-N-[(3R,4R)-3-hydroxy-3-methyl-chroman-4-yl]-2-(trifluoromethyl)benzamide]	1.6	–
C#CCCCC(c1cccc(C(=O)NC2CCOc3ccccc32)c1)N1C(=N)NC(CC)(CC)CC1=O [Example 210C, [1-[1-[3-[[(4S)-chroman-4-yl]carbamoyl]phenyl]hex-5-ynyl]-4,4-diethyl-6-oxo-hexahydropyrimidin-2-ylidene]ammonium; 2,2,2-trifluoroacetate]	–	EC50 [3]: 6.9 nM
CC[C@]1(CC(C)C)CC(=O)N(Cc2cc(F)cc(C(=O)N[C@H]3CCOc4ccccc43)c2)C(=N)N1 [Example 46, [(4S)-1-[[3-[[(4S)-chroman-4-yl]carbamoyl]-5-fluoro-phenyl]methyl]-4-ethyl-4-isobutyl-6-oxo-hexahydropyrimidin-2-ylidene]ammonium; 2,2,2-trifluoroacetate]	10.4	–
CCC12CCCCCCCC3CC(NC(=O)c4cccc(c4)CN(C(=N)N1)C(=O)C2)c1ccccc1O3 (centres unmarked) [Example 118, (26-ethyl-8,29-dioxo-17-oxa-1,9,27-triazapentacyclo[24.2.2.13,7.110,18. 011,16]dotriaconta-3,5,7(32),11(16),12,14-hexaen-28-ylidene)ammonium; 2,2,2-trifluoroacetate]	56.5	–
CCC[C@H](c1cccc(C(=O)N[C@H]2CCOc3ccccc32)c1)N1C(=N)N[C@](CC2CC2)(c2ccccc2)CC1=O [Example 68, [(4S)-1-[(1R)-1-[3-[[(4S)-chroman-4-yl]carbamoyl]phenyl]butyl]-4-(cyclopropylmethyl)-6-oxo-4-phenyl-hexahydropyrimidin-2-ylidene]ammonium; 2,2,2-trifluoroacetate]	72.2	–
CC[C@H](c1cccc(C(=O)N[C@@H]2c3ccccc3OC(C)(C)[C@H]2O)c1)N1C(=N)NC(CC)(CC)CC1=O [Example 207A, [4,4-diethyl-1-[1-[3-[[(3S,4R)-3-hydroxy-2,2-dimethyl-chroman-4-yl]carbamoyl]phenyl]propyl]-6-oxo-hexahydropyrimidin-2-ylidene]ammonium; 2,2,2-trifluoroacetate]	0.3	–
CCC1(CC)NC(=N)N(Cc2cc(F)cc(C(=O)N[C@H]3CCOc4ccccc43)c2)C(=O)C1C (stereo partly drawn) [Example 43, [1-[[3-[[(4S)-chroman-4-yl]carbamoyl]-5-fluoro-phenyl]methyl]-4,4-diethyl-5-methyl-6-oxo-hexahydropyrimidin-2-ylidene]ammonium; 2,2,2-trifluoroacetate]	–	EC50 [3]: 7.2 nM
CCC1(CC)CC(=O)N([C@H](CCOC)c2cccc(C(=O)N[C@@H]3c4ccccc4CC3(O)C(F)(F)F)c2)C(=N)N1 (single isomer, unassigned) [Example 204B]	–	EC50 [2]: 8.5 nM
CCC1(CC)CC(=O)N(C(CC(O)C(F)(F)F)c2cccc(C(=O)N[C@@H]3c4ccccc4C[C@H]3O)c2)C(=N)N1 (single isomer, unassigned) [Example 236C]	–	EC50 [2]: 2.3 nM
CCC1(CC)CC(=O)N(C(CCOC)c2ccc(C(F)(F)F)c(C(=O)N[C@@H]3c4ccccc4OC[C@@]3(C)O)c2)C(=N)N1 (stereo partly drawn) [Example 244, 5-[1-(4,4-diethyl-2-imino-6-oxo-hexahydropyrimidin-1-yl)-3-methoxy-propyl]-N-[(3S,4R)-3-hydroxy-3-methyl-chroman-4-yl]-2-(trifluoromethyl)benzamide]	6.13	–
CC1(C)CC(=O)N(C(CC(F)(F)F)c2cccc(C(=O)N[C@@H]3c4ccccc4OC(C)(C)[C@H]3O)c2)C(=N)N1 (stereo partly drawn) [Example 233, N-[(3S,4R)-3-hydroxy-2,2-dimethyl-chroman-4-yl]-3-[3,3,3-trifluoro-1-(2-imino-4,4-dimethyl-6-oxo-hexahydropyrimidin-1-yl)propyl]benzamide]	1.4	–
CCC1(C)CC(=O)N([C@H](CCOC)c2cccc(C(=O)N[C@@H]3c4ccccc4CC3(C)O)c2)C(=N)N1 (stereo partly drawn) [Example 196D, 3-[(1R)-1-(4-ethyl-2-imino-4-methyl-6-oxo-hexahydropyrimidin-l-yl)-3-methoxy-propyl]-N-[(1R,2R)-2-hydroxy-2-methyl-indan-1-yl]benzamide]	–	EC50 [2]: 6.8 nM
CCC1(CC)CC(=O)N([C@H](CCOC)c2cccc(C(=O)N[C@@H]3c4ccccc4C[C@H]3O)c2)C(=N)N1 [Example 2, 3-((R)-1-(4,4-diethyl-2-imino-6-oxotetrahydropyrimidin-1(2H)-yl)-3-methoxypropyl)-N-((1R,2R)-2-hydroxy-2,3-dihydro-1H-inden-1-yl)benzamide]	1.3	–
CC[C@@]1(C(F)(F)F)CC(=O)N(Cc2cc(F)cc(C(=O)N[C@H]3CCOc4ccccc43)c2)C(=N)N1 [Example 63, [(4S)-1-[[3-[[(4S)-chroman-4-yl]carbamoyl]-5-fluoro-phenyl]methyl]-4-ethyl-6-oxo-4-(trifluoromethyl)hexahydropyrimidin-2-ylidene]ammonium; 2,2,2-trifluoroacetate]	80.2	–
CCC[C@H](c1cccc(C(=O)N[C@@H]2c3ccccc3OC(C)(C)[C@H]2O)c1)N1C(=N)NC(CC)(CC)CC1=O [Example 119A, [4,4-diethyl-1-[(1R)-1-[3-[(3-hydroxy-2,2-dimethyl-chroman-4-yl)carbamoyl]phenyl]butyl]-6-oxo-hexahydropyrimidin-2-ylidene]ammonium; 2,2,2-trifluoroacetate]	0.5	–
CCC1(CC)CC(=O)N(Cc2cccc(C(=O)N[C@@H]3c4ccccc4OCC3F)c2)C(=N)N1 (stereo in doubt) [Example 87, [4,4-diethyl-1-[[3-[(3-fluorochroman-4-yl)carbamoyl]phenyl]methyl]-6-oxo-hexahydropyrimidin-2-ylidene]ammonium; 2,2,2-trifluoroacetate]	7.3	–
C=C=C(C)[C@H](c1cccc(C(=O)N[C@H]2CCOc3ccccc32)c1)N1C(=N)NC(CC)(CC)CC1=O [Example 78, [1-[1-[3-[[(4S)-chroman-4-yl]carbamoyl]phenyl]-2-methyl-buta-2,3-dienyl]-4,4-diethyl-6-oxo-hexahydropyrimidin-2-ylidene]ammonium; 2,2,2-trifluoroacetate]	3.1	–
N=C1N[C@@](CC2CC2)(c2ccccc2)CC(=O)N1Cc1cccc(C(=O)N[C@@H]2c3ccccc3C[C@H]2O)c1 [Example 17, [(4R)-4-(cyclopropylmethyl)-1-[[3-[[(1R,2R)-2-hydroxyindan-1-yl]carbamoyl]phenyl]methyl]-6-oxo-4-phenyl-hexahydropyrimidin-2-ylidene]ammonium; 2,2,2-trifluoroacetate]	3.7	–
CCC1(CC)CC(=O)N([C@H](CCOC(F)F)c2cccc(C(=O)N[C@@H]3c4ccccc4C[C@]3(C)O)c2)C(=N)N1 [Example 158B, 3-[1-(4,4-diethyl-2-imino-6-oxo-hexahydropyrimidin-1-yl)-3-(difluoromethoxy)propyl]-N-[(1R,2S)-2-hydroxy-2-methyl-indan-1-yl]benzamide]	–	EC50 [2]: 2.4 nM
CCC[C@H](c1cccc(C(=O)N[C@@H]2c3ccccc3OCC2O)c1)N1C(=N)NC(CC)(CC)CC1=O (stereo partly drawn) [Example 127D, 3-[(1R)-1-(4,4-diethyl-2-imino-6-oxo-hexahydropyrimidin-1-yl)butyl]-N-(3-hydroxychroman-4-yl)benzamide]	1.2	–
CCC1(C)CC(=O)N([C@H](CCOC)c2cccc(C(=O)N[C@@H]3c4ccccc4CC3(C)O)c2)C(=N)N1 (stereo partly drawn) [Example 196A, 3-[(1R)-1-(4-ethyl-2-imino-4-methyl-6-oxo-hexahydropyrimidin-1-yl)-3-methoxy-propyl]-N-[(1R,2S)-2-hydroxy-2-methyl-indan-1-yl]benzamide]	–	EC50 [2]: 6.5 nM
CC[C@@]1(C)CC(=O)N([C@H](CCOC(F)F)c2cccc(C(=O)N[C@@H]3c4ccccc4C[C@H]3O)c2)C(=N)N1 [Example 172, [(4S)-1-[3-(difluoromethoxy)-1-[3-[[(1R,2R)-2-hydroxyindan-1-yl]carbamoyl]phenyl]propyl]-4-ethyl-4-methyl-6-oxo-hexahydropyrimidin-2-ylidene]ammonium; 2,2,2-trifluoroacetate]	1.7	–
